The values below come from patent US20250326749A1, “COMPOUNDS, COMPOSITIONS, AND METHODS OF USING THEREOF” (Sionna Therapeutics Inc., priority 2022, published 2025).

The target of the test is T1, ΔF508-CFTR (Homo sapiens, UniProt P13569, DEL508-508).
T1 construct: expressed in transfected cells; host or cells: CFSMEo- (human CF submucosal gland epithelial cells, ΔF508/Q2X), transiently transfected by nucleofection
T1 sequence (P13569 with tags, fused parts or gaps DEL508-508): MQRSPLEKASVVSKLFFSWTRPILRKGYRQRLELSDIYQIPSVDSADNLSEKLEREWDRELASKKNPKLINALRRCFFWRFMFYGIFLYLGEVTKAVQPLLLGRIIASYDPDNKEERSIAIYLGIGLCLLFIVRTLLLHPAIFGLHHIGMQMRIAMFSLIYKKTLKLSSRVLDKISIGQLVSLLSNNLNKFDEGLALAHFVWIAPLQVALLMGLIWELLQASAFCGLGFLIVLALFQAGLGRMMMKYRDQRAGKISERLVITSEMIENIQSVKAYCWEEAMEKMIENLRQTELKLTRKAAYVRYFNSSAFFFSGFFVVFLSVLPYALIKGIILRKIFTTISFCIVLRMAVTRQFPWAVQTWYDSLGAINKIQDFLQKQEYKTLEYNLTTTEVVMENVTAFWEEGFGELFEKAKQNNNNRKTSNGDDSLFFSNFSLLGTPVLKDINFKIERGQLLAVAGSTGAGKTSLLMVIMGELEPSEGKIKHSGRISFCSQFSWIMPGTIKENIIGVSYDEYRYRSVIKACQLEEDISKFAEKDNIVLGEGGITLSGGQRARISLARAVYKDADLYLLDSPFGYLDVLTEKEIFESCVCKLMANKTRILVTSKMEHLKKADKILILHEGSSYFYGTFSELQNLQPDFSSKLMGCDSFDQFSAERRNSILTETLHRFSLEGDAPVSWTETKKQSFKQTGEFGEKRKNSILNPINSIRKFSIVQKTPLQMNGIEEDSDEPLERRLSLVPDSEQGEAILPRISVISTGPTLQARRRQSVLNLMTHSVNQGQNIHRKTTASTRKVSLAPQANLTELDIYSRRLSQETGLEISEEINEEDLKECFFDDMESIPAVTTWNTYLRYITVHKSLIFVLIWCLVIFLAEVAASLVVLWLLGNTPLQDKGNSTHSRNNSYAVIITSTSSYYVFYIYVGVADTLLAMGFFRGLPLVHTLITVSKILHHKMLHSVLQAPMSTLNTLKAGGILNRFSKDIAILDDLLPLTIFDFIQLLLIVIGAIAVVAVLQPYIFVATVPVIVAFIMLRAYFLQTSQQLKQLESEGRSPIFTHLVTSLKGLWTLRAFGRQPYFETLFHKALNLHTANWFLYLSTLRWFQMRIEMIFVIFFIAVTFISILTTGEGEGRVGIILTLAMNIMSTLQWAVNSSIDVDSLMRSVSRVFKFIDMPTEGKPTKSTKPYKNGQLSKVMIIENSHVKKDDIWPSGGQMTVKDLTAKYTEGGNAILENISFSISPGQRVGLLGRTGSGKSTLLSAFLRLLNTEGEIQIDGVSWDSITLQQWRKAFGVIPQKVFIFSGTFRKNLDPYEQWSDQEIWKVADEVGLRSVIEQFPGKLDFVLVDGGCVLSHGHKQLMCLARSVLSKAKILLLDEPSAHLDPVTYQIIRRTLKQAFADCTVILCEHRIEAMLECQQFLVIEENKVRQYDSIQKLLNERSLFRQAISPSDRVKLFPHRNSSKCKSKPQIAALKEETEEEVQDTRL
Kind of test: ΔF508-CFTR-HRP trafficking assay (cell surface expression of ΔF508-CFTR). It is filed as cell-based. Particulars: CFSMEo- cells transiently transfected with ΔF508-CFTR-HRP; test agent 3 μM, 48 h; HRP chemiluminescence. The gist of the method:
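Surface-expressed ΔF508-CFTR measured via extracellular HRP tag: cell-impermeable chemiluminescent substrate, 5 min, signal normalized to 0.3% DMSO vehicle.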
As for `C[C@H](Oc1cncc(-n2nc(C(F)(F)F)c3c2[C@@H](C(=O)N2CCC(C(=O)O)CC2)CCC3)c1)c1ccc2c(c1)OC(F)(F)O2` (single isomer, unassigned) [122 (P1)], the “RLUs: ΔF508-CFTR-HRP trafficking data normalized to the vehicle treated control (0.3% DMSO)” value is recorded as “C (RLU 0.0 μM-3.5 μM)”.
Then `C[C@H](Oc1cc(-n2nc(C(F)(F)F)c3c2[C@H](NC(=O)C24CC(C(=O)O)(C2)C4)CCC3)ccn1)c1ccc2c(c1)OC(F)(F)O2` (single isomer, unassigned) [Example 113], with “C (RLU 0.0 μM-3.5 μM)”.
Then `C[C@H](Oc1cc(-n2nc(C(F)(F)F)c3c2[C@@H](Oc2ccc(C(=O)O)cc2)CCC3)cnc1F)c1cc2c(cc1F)OC(F)(F)O2` (single isomer, unassigned) [Example 36d], with “B (RLU 3.5 μM-5.0 μM)”; and `C[C@H](Oc1cncc(-n2nc(C(F)(F)F)c3c2[C@H](OC24CC(C(=O)O)(C2)C4)CCC3)c1)c1cc2c(cc1F)OC(F)(F)O2` (single isomer, unassigned) [74 (P2)], with “A (RLU 5.0 μM-10 μM)”.
For `C[C@H](Nc1ccc(F)c(-n2nc(C(F)(F)F)c3c2[C@@H](OC24CC(C(=O)O)(C2)C4)CCC3)c1)c1cc2c(cc1F)OC(F)(F)O2` (single isomer, unassigned) [98 (P1)], the “RLUs: ΔF508-CFTR-HRP trafficking data normalized to the vehicle treated control (0.3% DMSO)” value is on record as “C (RLU 0.0 μM-3.5 μM)”.
Under `C[C@H](Oc1cncc(-n2nc(C(F)(F)F)c3c2N(C(=O)[C@H]2CC[C@H](C(=O)O)CC2)CCC3)c1)c1ccc2c(c1)OC(F)(F)O2` (single isomer, unassigned) [Example 17] stands “C (RLU 0.0 μM-3.5 μM)”; under `C[C@H](Oc1cc(-n2nc(C(F)(F)F)c3c2[C@@H](OC24CCC(C(=O)O)(CC2)CC4)CCC3)cnc1F)c1ccc2c(c1)OC(F)(F)O2` (single isomer, unassigned) [Example 59], “C (RLU 0.0 μM-3.5 μM)”.
As to `C[C@H](Nc1nc(-n2nc(C#N)c3c2[C@@H](OC24CC(C(=O)O)(C2)C4)CCC3)ccc1F)c1ccc2c(c1)OC(F)(F)O2` (single isomer, unassigned) [108 (P1)], the “RLUs: ΔF508-CFTR-HRP trafficking data normalized to the vehicle treated control (0.3% DMSO)” value is recorded as “C (RLU 0.0 μM-3.5 μM)”.
Under `C[C@H](Nc1cc(-n2nc(C(F)(F)F)c3c2[C@@H](OC24CC(c5nc(=O)o[nH]5)(C2)C4)CCC3)ccc1F)c1cc2c(cc1F)OC(F)(F)O2` (single isomer, unassigned) [103 (P1)] stands “B (RLU 3.5 μM-5.0 μM)”; under `C[C@H](Oc1nc(-n2nc(C(F)(F)F)c3c2[C@@H](Oc2ccc(C(=O)O)cc2)CCC3)ccc1F)c1ccc2c(c1)OC(F)(F)O2` (single isomer, unassigned) [Example 36f], “A (RLU 5.0 μM-10 μM)”.
Then `C[C@H](Nc1nc(-n2nc(C#N)c3c2[C@H](OC24CC(C(=O)O)(C2)C4)CCC3)ccc1F)c1ccc2c(c1)OC(F)(F)O2` (single isomer, unassigned) [108 (P2)], with “C (RLU 0.0 μM-3.5 μM)”; and `C[C@H](Oc1cc(-n2nc(C(F)(F)F)c3c2[C@@H](Oc2ccc(-c4nc(=O)o[nH]4)cc2)CCC3)ccn1)c1ccc2c(c1)OC(F)(F)O2` (single isomer, unassigned) [Example 112], with “A (RLU 5.0 μM-10 μM)”; and `C[C@H](Oc1cncc(-n2nc(C(F)(F)F)c3c2N(C(=O)c2ccc(C(=O)O)cc2)CCC3)c1)c1ccc2c(c1)OC(F)(F)O2` (single isomer, unassigned) [Example 16], with “C (RLU 0.0 μM-3.5 μM)”.
Then `C[C@H](Oc1cc(-n2nc(C(F)(F)F)c3c2[C@@H](Oc2ccc(C(=O)O)cc2)CCC3)ccn1)c1cc2c(cc1F)OC(F)(F)O2` (single isomer, unassigned) [Example 36a], with “A (RLU 5.0 μM-10 μM)”.
Regarding `C[C@H](Oc1nc(-n2nc(C(F)(F)F)c3c2[C@@H](Oc2ccc(C(=O)O)cc2)CCC3)ccc1F)c1cc2c(cc1F)OC(F)(F)O2` (single isomer, unassigned) [Example 36m], the “RLUs: ΔF508-CFTR-HRP trafficking data normalized to the vehicle treated control (0.3% DMSO)” value is given as “A (RLU 5.0 μM-10 μM)”.
Then `C[C@H](Oc1cccc(-n2nc(C(F)(F)F)c3c2[C@H](OC24CC(C(=O)O)(C2)C4)CCC3)n1)c1ccc2c(c1)OC(F)(F)O2` (single isomer, unassigned) [77 (P2)], with “B (RLU 3.5 μM-5.0 μM)”.
Then `C[C@H](Oc1cc(-n2nc(C(F)(F)F)c3c2N(CC24CCC(C(=O)O)(CC2)CC4)CCC3)ccn1)c1ccc2c(c1)OC(F)(F)O2` (single isomer, unassigned) [Example 9], with “A (RLU 5.0 μM-10 μM)”; and `C[C@H](Oc1cncc(-n2nc(C(F)(F)F)c3c2[C@H](O[C@H]2CC[C@H](C(=O)O)CC2)CCC3)c1)c1ccc2c(c1)OC(F)(F)O2` (single isomer, unassigned) [Example 67], with “A (RLU 5.0 μM-10 μM)”; and `C[C@H](Oc1cc(-n2nc(C(F)(F)F)c3c2[C@@H](Oc2ccc(C(=O)O)cc2)CCC3)cnn1)c1ccc2c(c1)OC(F)(F)O2` (single isomer, unassigned) [Example 61], with “C (RLU 0.0 μM-3.5 μM)”.
`C[C@@H](Oc1cccc(-n2nc(C(F)(F)F)c3c2C(Oc2ccc(C(=O)O)cc2)CCC3)c1)c1cc2c(cc1F)OC(F)(F)O2` (stereo partly drawn) [Example 32, 4-[[1-[3-[(1R)-1-(2,2,6-trifluoro-1,3-benzodioxol-5-yl)ethoxy]phenyl]-3-(trifluoromethyl)-4,5,6,7-tetrahydroindazol-7-yl]oxy]benzoic acid]: the “RLUs: ΔF508-CFTR-HRP trafficking data normalized to the vehicle treated control (0.3% DMSO)” value is reported as “B (RLU 3.5 μM-5.0 μM)”.
As to `C[C@H](Oc1cc(-n2nc(C(F)(F)F)c3c2[C@H](OC24CC(c5nc(=O)o[nH]5)(C2)C4)CCC3)ccc1F)c1ccc2c(c1)OC(F)(F)O2` (single isomer, unassigned) [85 (P2)], the “RLUs: ΔF508-CFTR-HRP trafficking data normalized to the vehicle treated control (0.3% DMSO)” value is “B (RLU 3.5 μM-5.0 μM)”.
Turning to `C[C@H](Oc1cc(-n2nc(C(F)(F)F)c3c2[C@@H](OC24CC(C(=O)O)(C2)C4)CCC3)ccc1F)c1ccc2c(c1)OC(F)(F)O2` (single isomer, unassigned) [76 (P1)], the “RLUs: ΔF508-CFTR-HRP trafficking data normalized to the vehicle treated control (0.3% DMSO)” value is “C (RLU 0.0 μM-3.5 μM)”.
`C[C@H](Oc1cncc(-n2nc(C(F)(F)F)c3c2[C@@H](OC24CCC(C(=O)O)(CC2)CC4)CCC3)c1)c1ccc2c(c1)OC(F)(F)O2` (single isomer, unassigned) [Example 57]: the “RLUs: ΔF508-CFTR-HRP trafficking data normalized to the vehicle treated control (0.3% DMSO)” value is “B (RLU 3.5 μM-5.0 μM)”.
With `CC(C)[C@H](Nc1cc(-n2nc(C(F)(F)F)c3c2[C@@H](Oc2ccc(C(=O)O)cc2)CCC3)ccn1)c1ccc2c(c1)OC(F)(F)O2` (single isomer, unassigned) [Example 89], the “RLUs: ΔF508-CFTR-HRP trafficking data normalized to the vehicle treated control (0.3% DMSO)” value was “C (RLU 0.0 μM-3.5 μM)”.
Under `C[C@H](Oc1cnnc(-n2nc(C(F)(F)F)c3c2[C@@H](Oc2ccc(C(=O)O)cc2)CCC3)c1)c1ccc2c(c1)OC(F)(F)O2` (single isomer, unassigned) [Example 36h] stands “B (RLU 3.5 μM-5.0 μM)”; under `C[C@H](Oc1cc(-n2nc(C(F)(F)F)c3c2[C@@H](OC24CC(c5nc(=O)o[nH]5)(C2)C4)CCC3)ccc1F)c1ccc2c(c1)OC(F)(F)O2` (single isomer, unassigned) [85 (P1)], “C (RLU 0.0 μM-3.5 μM)”.
As to `C[C@@H](Oc1cc(-n2nc(C(F)(F)F)c3c2C(O[C@H]2CC[C@H](C(=O)O)CC2)CCC3)ccn1)c1cc2c(cn1)OC(F)(F)O2` (single isomer, unassigned) [Example 47], the “RLUs: ΔF508-CFTR-HRP trafficking data normalized to the vehicle treated control (0.3% DMSO)” value was “B (RLU 3.5 μM-5.0 μM)”.
Regarding `C[C@H](Oc1nc(-n2nc(C(F)(F)F)c3c2[C@H](O[C@H]2C[C@H](C(=O)O)C2)CCC3)ccc1F)c1cc2c(cc1F)OC(F)(F)O2` (single isomer, unassigned) [84 (P2)], the “RLUs: ΔF508-CFTR-HRP trafficking data normalized to the vehicle treated control (0.3% DMSO)” value is given as “C (RLU 0.0 μM-3.5 μM)”.
For the compound `C[C@H](Oc1cccc(-n2nc(C(F)(F)F)c3c2C(Oc2ccc(C(=O)O)cc2)CCC3)c1)c1cc2c(cc1F)OC(F)(F)O2` (stereo partly drawn) [Example 33, 4-[[1-[3-[(1S)-1-(2,2,6-trifluoro-1,3-benzodioxol-5-yl)ethoxy]phenyl]-3-(trifluoromethyl)-4,5,6,7-tetrahydroindazol-7-yl]oxy]benzoic acid], the “RLUs: ΔF508-CFTR-HRP trafficking data normalized to the vehicle treated control (0.3% DMSO)” value is listed as “B (RLU 3.5 μM-5.0 μM)”.
Then `C[C@H](Oc1cccc(-n2nc(C(F)(F)F)c3c2[C@@H](OC24CC(C(=O)O)(C2)C4)CCC3)n1)c1ccc2c(c1)OC(F)(F)O2` (single isomer, unassigned) [77 (P1)], with “B (RLU 3.5 μM-5.0 μM)”; and `C[C@H](Oc1cc(-n2nc(C(F)(F)F)c3c2[C@@H](O[C@H]2CC[C@H](C(=O)O)CC2)CCC3)cc(F)n1)c1ccc2c(c1)OC(F)(F)O2` (single isomer, unassigned) [80 (P1)], with “A (RLU 5.0 μM-10 μM)”.
On to `C[C@H](Oc1cc(-n2nc(C(F)(F)F)c3c2[C@H](CN2CCC(C(=O)O)CC2)CCC3)ccn1)c1ccc2c(c1)OC(F)(F)O2` (single isomer, unassigned) [125 (P2)], for which the “RLUs: ΔF508-CFTR-HRP trafficking data normalized to the vehicle treated control (0.3% DMSO)” value was “A (RLU 5.0 μM-10 μM)”.
As to `C[C@H](Oc1cc(-n2nc(C(F)(F)F)c3c2[C@H](OC[C@H]2CC[C@H](C(=O)O)CC2)CCC3)cnc1F)c1ccc2c(c1)OC(F)(F)O2` (single isomer, unassigned) [82 (P2)], the “RLUs: ΔF508-CFTR-HRP trafficking data normalized to the vehicle treated control (0.3% DMSO)” value is given as “A (RLU 5.0 μM-10 μM)”.
